Experimental data taken from patent publication US10179161B2, “Compositions and methods for enhancing cardiac function in the neonate” (priority 2016, dated 2019).

How the values were obtained:
[1] = test system: supercomplex assembly (synthasomes); assay: synthasome levels by clear native immunoblot in adult heart mitochondria; assay type: biochemical, mice; details: 0.5 mM; n=7
Procedure: Inhibition of CyPD should […] the assembly of the ETC into supercomplexes.
Adult heart mitochondria were used to show decreased supercomplex assembly after PTP opening and increased supercomplex assembly after PTP inhibition or deletion (FIG. 1). A: Mitochondrial permeability transition was induced by 60 μM free Ca^2+ (arrow) and was inhibited by 0.5 mM ADP or 200 nM CsA (top panel). Swelling, indicating PTP opening and a fall in absorbance, is reversible after the addition of 250 μM EGTA (arrow; bottom panel). […] The experimental conditions are summarized below the blot. […] Note that the ATP synthase IGA results a white reaction product, so the shading is correct. (N=4, * p≤0.05, ** p≤0.001 by T-test).

CyPD = details: cited from earlier work
adult animals = details: 10 mg/Kg IV; cited from earlier work

Row | Molecule | Ca2+-induced PT decrease of synthasome levels [1] | K0.5 as a CyPD inhibitor (CyPD) [nM] | potency as a CyPD inhibitor relative to CsA (CyPD) | effects of ischemia reperfusion injury in the heart (adult animals)
1 | Nc1ncnc2c1ncn2[C@@H]1O[C@H](COP(=O)(O)OP(=O)(O)O)[C@@H](O)[C@H]1O [ADP] | inhibited | – | – | –
2 | CC[C@H]1C[C@H](C)[C@@]2(NC1=O)O[C@@H](C[C@H](O)[C@@H](C)CC/C=C/C=C(\C)[C@@H]1C/C=C/C=C/[C@H](O)[C@H](C)[C@@H](O)[C@@H](CCC(C)=O)C(=O)N[C@@H](C(C)C)C(=O)N[C@@H](Cc3cccc(O)c3)C(=O)N3CCC[C@H](N3)C(=O)O1)[C@H](C)[C@H](O)[C@@H]2C [Sangliferin A, Sanglifehrin A] | – | 2 | more potent | –
3 | Alisporivir | – | – | about as potent as CsA | ameliorate
